What all share (format): cell-based
In assay [1] the test system is melanoma cells. Briefly: Cell viability assay (Cell Titer-Glo), inhibitor alone or with Cisplatin. Here is the method:
Cells were seeded at 10,000 cells/well in 96-well plates and incubated for 24 h at 37° C. with 5% CO2. […] The cell viability was determined using the Cell Titer-Glo luminescent cell viability assay kit (Promega, Madison, WI), according to the manufacturer's instructions. Luminescence was measured using a DTX 800 microplate reader (Coulter). The half-maximal inhibitory concentration (IC50) values were calculated using the GraphPad Prism software. The assay was done by conducting 3 independent experiments.
Background: Cellular ATP, detected with luciferase, serves as a proxy for viable cell number.

The subject of assay [2] is WM3248 melanoma cells. The experiment in a line: Flow cytometric analyses for apoptosis (Annexin V and PI). The note with it: 24 hours, FIG. 1. The protocol: Approximately 1×10^6 melanoma cells treated with inhibitors for 24 hours and were then trypsinized and washed with PBS, the single-cell suspensions were incubated with Alexa Fluor-Annexin V and propidium iodide (PI) (V13245; Invitrogen) per the manufacturer's protocol and were subjected to flow cytometric analysis. In all cases, cell debris was gated out on the basis of forward scatter and side scatter analysis. Data was analyzed using FlowJo (Ashland, OR). Results are illustrated in FIG. 1, wherein WM3248 melanoma cells were treated with the indicated doses of compound 1 (ARN12405) and apoptosis was measured by flow cytometry using Annexin V and PI.

Assay [3] has as its target T1, RhoJ PAK interaction (Homo sapiens, UniProt Q9H4E5).
T1 construct: host or cells: WM3248 cells
The experiment in a line: Cdc42 activation assay (PAK1 PBD bead pull-down, immunoblot). Particulars: cell lysates from WM3248 cells, PAK coupled beads, FIG. 2. The protocol: A Cdc42 activation assay was performed according the manufacturer's protocol (Cell Biolabs, San Diego, CA). Briefly, cells treated with the inhibitor were lysed and either loaded with GDP or GTPyS. Agarose beads conjugated with the PAK1 PBD domain pulled down Cdc42, Rac1, or RhoJ only when GTP-bound. Lysates were then immunoblotted with indicated Abs. Results are illustrated in FIG. 2. […] Briefly, cells were treated with compound 1 (ARN12405) and cell lysates were prepared and incubated with PAK coupled beads. Immunoprecipitated proteins were subjected to SDS PAGE and immunoblotted with a (A) RhoJ antibody, (B) Cdc42 antibody, (C) Rac1 antibody, (D) Cells were treated with one of a panel of RhoJ interaction inhibitors at a concentration of 10 μm or 50 μm (see FIG. 2, panels A-D). Lysates were prepared, incubated with PAK coupled beads, and immunoprecipitated proteins were immunoblotted with a RhoJ antibody.
Background: In western blotting, separated proteins are transferred to a membrane and probed.

Setting [4] is: inhibitor (1.25-50 μM) with Cisplatin at 20 μM, 24 hours, Cell Titer-Glo, 3 independent experiments, read-out: IC50 (CisPt).

Like-named read-outs stand apart in the source and are kept apart here. Bounds are passed on as bounds.

The term IC50 denotes the midpoint of a concentration-inhibition curve.

T1 sequence (Q9H4E5 1-211 limits assumed): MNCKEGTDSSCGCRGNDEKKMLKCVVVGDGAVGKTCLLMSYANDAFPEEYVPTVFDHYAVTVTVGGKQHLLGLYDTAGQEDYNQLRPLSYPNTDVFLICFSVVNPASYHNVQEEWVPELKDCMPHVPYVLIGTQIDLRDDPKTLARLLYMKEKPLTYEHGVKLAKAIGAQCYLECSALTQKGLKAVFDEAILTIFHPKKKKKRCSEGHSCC

Turning to `COc1cccc(Nc2cc(-c3ccccc3)nc(C3CCNCC3)n2)c1` [Compound 15, N-(3-methoxyphenyl)-6-phenyl-2-(4-piperidyl)pyrimidin-4-amine], in assay [1] (setting [4]), the half-inhibitory concentration (IC50) stood at 22.2 µM.

Turning to `COc1cccc(Nc2cc(-c3ccccc3)nc(C3CCCNC3)n2)c1` (stereo not shown) [Compound 11, N-(3-methoxyphenyl)-6-phenyl-2-(3-piperidyl)pyrimidin-4-amine], the IC50 in assay [1] (setting [4]) worked out at 27.8 µM.

Turning to `COc1ccc(Nc2cc(-c3ccccc3)nc(C3CCNCC3)n2)cc1` [Compound 13, N-(4-methoxyphenyl)-6-phenyl-2-(4-piperidyl)pyrimidin-4-amine], the half-maximal inhibitory concentration (IC50) in assay [1] (setting [4]) was determined as 36.7 µM.

On to `Clc1cccc(Nc2cc(-c3ccncc3)nc(C3CCCNC3)n2)c1` (stereo not shown) [Compound 5], for which the half-maximal inhibitory concentration (IC50) in assay [1] (setting [4]) came out at 42.3 µM.

Consider `CN(C)c1cccc(Nc2cc(-c3ccccc3)nc(C3CCCNC3)n2)c1` (stereo not shown) [Compound 10, N3,N3-dimethyl-N1-[6-phenyl-2-(3-piperidyl)pyrimidin-4-yl]benzene-1,3-diamine], for which, in assay [1] (24 h, read-out: IC50 (alone)), the IC50 turned out to be 45 µM.

As to `CN(C)c1cccc(Nc2cc(-c3ccccc3)nc(C3CCNCC3)n2)c1` [Compound 14, N3,N3-dimethyl-N1-[6-phenyl-2-(4-piperidyl)pyrimidin-4-yl]benzene-1,3-diamine], in assay [1] (setting [4]), the half-inhibitory concentration (IC50) worked out at 17.2 µM.

`Clc1ccc(Nc2cc(-c3ccccn3)nc(C3CCCNC3)n2)cc1` (stereo not shown) [Compound 3]: the 50% inhibitory concentration (IC50) in assay [1] (setting [4]) amounted to 38.2 µM.

Regarding `CN(C)c1ccc(Nc2cc(-c3ccccc3)nc(C3CCNCC3)n2)cc1` [Compound 12, N4,N4-dimethyl-N1-[6-phenyl-2-(4-piperidyl)pyrimidin-4-yl]benzene-1,4-diamine], the IC50 in assay [1] (24 h, read-out: IC50 (CisPt)) was 86.3 µM.

For `Clc1ccc(Nc2cc(-c3cccnc3)nc(C3CCCNC3)n2)cc1` (stereo not shown) [Compound 2], the IC50 in assay [1] (setting [4]) amounted to 11.5 µM.

In the case of `CN(C)c1ccc(Nc2cc(-c3ccccc3)nc(C3CCCNC3)n2)cc1` (stereo not shown) [Compound 8, N1,N1-dimethyl-N4-[6-phenyl-2-(3-piperidyl)pyrimidin-4-yl]benzene-1,4-diamine], the IC50 in assay [1] (setting [4]) turned out to be 31.4 µM.

Take `Fc1ccc(-c2cc(Nc3ccccc3)nc(C3CCCNC3)n2)cc1` (stereo not shown) [Compound 7]: the IC50 in assay [1] (setting [4]) was 32 µM.

Take `CN(C)c1ccc(Nc2cc(-c3ccccc3)nc(C3CCOCC3)n2)cc1` [Compound 16, N4,N4-dimethyl-N1-(6-phenyl-2-tetrahydropyran-4-yl-pyrimidin-4-yl)benzene-1,4-diamine]: the IC50 in assay [1] (24 h, read-out: IC50 (alone)) was over 50 µM; in assay [1] (setting [4]) it was over 50 µM.

Take `COc1ccc(Nc2cc(-c3ccccc3)nc(C3CCOCC3)n2)cc1` [Compound 17, N-(4-methoxyphenyl)-6-phenyl-2-tetrahydropyran-4-yl-pyrimidin-4-amine]: the half-inhibitory concentration (IC50) is over 50 µM in assay [1] (24 h, read-out: IC50 (alone)) and over 50 µM in assay [1] (setting [4]).

Take `COc1ccc(-c2cc(Nc3ccc(Cl)cc3)nc(C3CCCNC3)n2)cc1` (stereo not shown) [Compound 6]: the IC50 in assay [1] (setting [4]) was 17 µM.

`Clc1ccc(Nc2cc(-c3ccccc3)nc(C3CCCNC3)n2)cc1` (stereo not shown) [Compound 4]: in assay [1] (setting [4]), the IC50 was determined as 7 µM.

Consider `COc1ccc(Nc2cc(-c3ccccc3)nc(C3CCCNC3)n2)cc1` (stereo not shown) [Compound 9, N-(4-methoxyphenyl)-6-phenyl-2-(3-piperidyl)pyrimidin-4-amine], for which the IC50 in assay [1] (24 h, read-out: IC50 (alone)) is over 50 µM; in assay [1] (setting [4]) it was over 50 µM.

As to `Clc1ccc(Nc2cc(-c3ccncc3)nc(C3CCCNC3)n2)cc1` (stereo not shown) [Compound 1], in assay [2], the “apoptosis measured by flow cytometry using AnnexinV and PI” value is recorded as “apoptosis induced”. For the same compound, in assay [1] (setting [4]), the IC50 was 12.8 µM. In addition, the “RhoJ PAK interaction in cell lysates (SDS PAGE and immunoblotting)” value in assay [3] was “block of RhoJ PAK interaction”.

The record behind these values is patent US12503456B2, “Substituted pyrimidines and 1,3,5-triazines as RHOJ inhibitors” (Fondazione Istituto Italiano Di Tecnologia, priority 2017, dated 2025).
